Here are results for one molecule from patent US20140228287A1, “1-[(3-CYANO-PYRIDIN-2-YL)METHYL]-3-METHYL-7-(2-BUTYN-1-YL)-8-[3-(R)-AMINO-PIPERIDIN-1-YL]-AXANTHINE FOR THE TREATMENT OF A METABOLIC DISORDER OF A PREDOMINANTLY CARNIVOROUS NON-HUMAN ANIMAL” (BOEHRINGER INGELHEIM VETMEDICA GMBH, priority 2010, published 2014).

Counter-ions that a name gives are not always drawn. Like-named read-outs stand apart in the source and are kept apart here.

One series has as its system diabetic ZDF rats. Kind of series: Delayed OGTT in diabetic ZDF rats. Particulars: 1 mg/kg 16 hours before the test. The class given is in vivo, rat. The method, then: A delayed oral glucose tolerance test (OGTT) was applied to diabetic db/db mice and diabetic ZDF rats, as describes in the following.
Male Zucker Diabetic Fatty (ZDF) rats (ZDF/Crl-Leprfa) were obtained from Charles River (USA). Animals were fed ad libitum with a special pelleted diet (Diet No. 2437 [containing 4.5% sucrose], Provimi Kliba, Switzerland) and had free access to water. Animals were housed in groups with a 12 h/12 h light/dark cycle (lights out between 6 p.m. and 6 a.m.). The rats were used for the experiments at 12 weeks of age.
The day before the OGTT, a blood sample from db/db mice or ZDF rats fasted for 2 hours was obtained by cutting the tip of the tail without anaesthesia and the animals were randomized for glucose (n=7 per group). The animals were fed again for 2 hours and then orally administered with either vehicle or 1-[(3-cyano-pyridin-2-yl)methyl]-3-methyl-7-(2-butyn-1-yl)-8-[3-(R)-amino-piperidin-1-yl]-xanthine monohydrochloride at doses between 0.3 and 3 mg/kg bw. A basal blood sample (pre-load) was obtained the next morning after overnight fasting for 16 hours by cutting the tip of the tail without anaesthesia. […] Additional blood samples were taken from the tip of the tail 30 min, 60 min, 90 min, 120 min, and 180 min after the glucose load, and blood glucose was measured. […]

In a further series the target is DPP 9 (Homo sapiens, UniProt Q86TI2). The series can be described thus: In vitro selectivity, human proteases: DPP 9. The class given is biochemical. From the text:
(§1) In order to determine the in vitro selectivity of 1-[(3-cyano-pyridin-2-yl)methyl]-3-methyl-7-(2-butyn-1-yl)-8-[3-(R)-amino-piperidin-1-yl]-xanthine, the ability of this compound to inhibit a number of human proteases was investigated as described in Thomas et al. (2008), J. Pharmacol. Exp. Ther., vol. 325, p. 175-182, chapter In vitro DPP-4 Inhibition Assay, p. 176.

The nature of series [1]: Exploratory single dose PK/PD (1.0/5.0/10.0 mg/kg) in cats: pharmacokinetics. The class given is in vivo. To be noted: cat; for AUC(0-inf) / Cmax / MRT / Tmax / half-life: male, domestic short hair, plasma, free base by LC-MS/MS; for half-life: read-out: T1/2, mean (converted). The method, then: The aim of this study was to investigate the PK/PD behaviour of 1-[(3-cyano-pyridin-2-yl)methyl]-3-methyl-7-(2-butyn-1-yl)-8-[3-(R)-amino-piperidin-1-yl]-xanthine in the cat following a single oral administration of 0, 1, 5 and 10 mg/kg body weight (dosages were based on the free base: 1 mg 1-[(3-cyano-pyridin-2-yl)methyl]-3-methyl-7-(2-butyn-1-yl)-8-[3-(R)-amino-piperidin-1-yl]-xanthine monohydrochloride corresponds to 0.923 mg 1-[(3-cyano-pyridin-2-yl)methyl]-3-methyl-7-(2-butyn-1-yl)-8-[3-(R)-amino-piperidin-1-yl]-xanthine free base).
Twelve clinically healthy male adult domestic short hair cats with a body weight range of 3.5-4.7 kg were used in this study. All animals were treated orally once via a stomach tube. Blood samples for pharmacokinetic and pharmacodynamic (DPP IV activity) investigations were drawn at 0 h (i.e. prior to treatment), 30 min as well as 1, 2, 4, 8, 8.5, 9, 12, 24, 36, 48, 72, 84 and 96 h after treatment. Blood samples for pharmacodynamic (glucagon-like peptide 1 concentrations) investigations were drawn at −16 (i.e. prior to feeding), −15.5, −15 h as well as at 8 h (i.e. prior to feeding), 8.5 and 9 h after treatment.
PK data for 1-[(3-cyano-pyridin-2-yl)methyl]-3-methyl-7-(2-butyn-1-yl)-8-[3-(R)-amino-piperidin-1-yl]-xanthine free base were determined with a validated LC-MS/MS method and are summarized in Table 6.

For a further series, the target named is plasmin (Homo sapiens, UniProt P00747). The series can be described thus: In vitro selectivity, human proteases: plasmin. The format is biochemical. Particulars: up to 100 μM.
Excerpt: as §1

A further series has as its system plasma DPP IV. The series can be described thus: Plasma DPP IV activity after oral administration, Beagle dog. Particulars: 3 mg/kg oral, 24 hours post dose. The class given is in vivo. The method, then: The effect of 1-[(3-cyano-pyridin-2-yl)methyl]-3-methyl-7-(2-butyn-1-yl)-8-[3-(R)-amino-piperidin-1-yl]-xanthine on plasma DPP IV activity after oral administration was investigated in the rat, the Beagle dog and the Rhesus monkey. These investigations were conducted as described in the following.
Overnight fasted male Beagle dogs (n=4 per group) were administered oral doses of 1-[(3-cyano-pyridin-2-yl)methyl]-3-methyl-7-(2-butyn-1-yl)-8-[3-(R)-amino-piperidin-1-yl]-xanthine monohydrochloride at 3 and 12 mg/kg body weight. Blood samples were drawn from a butterfly inserted in either the right or left forearm vein. Blood was collected in EDTA tubes prior to administration of 1-[(3-cyano-pyridin-2-yl)methyl]-3-methyl-7-(2-butyn-1-yl)-8-[3-(R)-amino-piperidin-1-yl]-xanthine monohydrochloride and subsequently at 1, 2, 4, 8, and 24 hour time points post dose. Plasma was prepared following blood collection and frozen for determination of DPP-IV activity.

The target in a further series is DPP-II (Homo sapiens, UniProt Q9UHL4). Kind of series: In vitro selectivity, human proteases: DPP-II. The format is biochemical. To be noted: up to 100 μM.
Excerpt: as §1

In the next series the target is T1, DPP IV (Felis catus, UniProt Q9N2I7).
T1 construct: Blood samples for the determination of this compound and DPP IV activity were collected; from tissue; host or cells: plasma of domestic short hair / purpose-bred cats dosed orally
Kind of series: OGTT study in normal cats after 9 mg per cat: DPP IV activity. Particulars: 9 mg per cat oral. The class given is in vivo. The method, then: An OGTT like in Example 11 was performed in […] beginning 1 h after oral administration of 9 mg 1-[(3-cyano-pyridin-2-yl)methyl]-3-methyl-7-(2-butyn-1-yl)-8-[3-(R)-amino-piperidin-1-yl]-xanthine monohydrochloride or placebo (2 groups with 6 animals each; 3 male and 3 females per group).

In the next series the test system is amino-peptidase P. Kind of series: In vitro selectivity, human proteases: amino-peptidase P. The class given is biochemical. To be noted: up to 100 μM.
Excerpt: as §1

Chain of plasmin (P00747 581-810 limits assumed): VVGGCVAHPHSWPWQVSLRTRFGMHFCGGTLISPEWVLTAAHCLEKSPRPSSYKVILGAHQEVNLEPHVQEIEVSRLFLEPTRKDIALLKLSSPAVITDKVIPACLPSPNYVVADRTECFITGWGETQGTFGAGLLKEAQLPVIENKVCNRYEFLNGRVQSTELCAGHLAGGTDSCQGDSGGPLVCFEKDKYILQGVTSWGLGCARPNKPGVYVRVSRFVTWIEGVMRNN
Chain of plasmin (P00747 97-580 partner limits assumed): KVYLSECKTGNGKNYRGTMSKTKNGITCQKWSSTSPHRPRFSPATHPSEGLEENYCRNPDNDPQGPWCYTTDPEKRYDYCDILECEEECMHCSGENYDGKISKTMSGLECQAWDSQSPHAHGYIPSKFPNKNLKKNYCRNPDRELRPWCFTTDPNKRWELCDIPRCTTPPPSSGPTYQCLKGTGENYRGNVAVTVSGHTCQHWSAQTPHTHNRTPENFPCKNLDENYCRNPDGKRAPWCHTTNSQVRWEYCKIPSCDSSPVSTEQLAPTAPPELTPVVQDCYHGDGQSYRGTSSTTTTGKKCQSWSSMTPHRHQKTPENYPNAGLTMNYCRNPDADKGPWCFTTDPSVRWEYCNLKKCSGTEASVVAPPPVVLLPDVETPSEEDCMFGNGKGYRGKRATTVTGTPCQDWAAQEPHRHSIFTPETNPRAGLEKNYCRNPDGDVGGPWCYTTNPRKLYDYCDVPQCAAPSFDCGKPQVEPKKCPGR
Chain of DPP 9 (Q86TI2 whole entry): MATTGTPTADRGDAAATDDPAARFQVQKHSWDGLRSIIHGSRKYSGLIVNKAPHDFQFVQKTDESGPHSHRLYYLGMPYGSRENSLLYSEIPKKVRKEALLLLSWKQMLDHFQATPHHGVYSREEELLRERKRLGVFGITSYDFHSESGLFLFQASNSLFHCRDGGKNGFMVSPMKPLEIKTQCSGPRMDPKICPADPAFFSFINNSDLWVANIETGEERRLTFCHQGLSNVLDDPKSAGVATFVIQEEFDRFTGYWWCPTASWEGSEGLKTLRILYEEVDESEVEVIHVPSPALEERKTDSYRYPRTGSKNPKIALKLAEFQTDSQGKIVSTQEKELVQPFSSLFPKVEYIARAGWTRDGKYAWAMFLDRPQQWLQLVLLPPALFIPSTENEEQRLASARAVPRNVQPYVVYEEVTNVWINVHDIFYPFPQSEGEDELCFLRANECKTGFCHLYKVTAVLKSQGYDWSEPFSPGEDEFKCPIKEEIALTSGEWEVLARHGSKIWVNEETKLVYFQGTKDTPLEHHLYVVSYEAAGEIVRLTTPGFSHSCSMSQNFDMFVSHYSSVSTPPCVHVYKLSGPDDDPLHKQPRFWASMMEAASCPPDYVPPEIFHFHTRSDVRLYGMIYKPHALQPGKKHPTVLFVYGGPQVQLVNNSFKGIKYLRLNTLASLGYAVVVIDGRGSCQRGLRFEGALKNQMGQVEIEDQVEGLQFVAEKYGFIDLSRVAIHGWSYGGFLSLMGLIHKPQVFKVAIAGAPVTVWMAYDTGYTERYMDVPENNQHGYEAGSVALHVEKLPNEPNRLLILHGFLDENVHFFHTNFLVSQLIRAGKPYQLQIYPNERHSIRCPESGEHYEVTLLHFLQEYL
T1 sequence (Q9N2I7 38-765 limits assumed): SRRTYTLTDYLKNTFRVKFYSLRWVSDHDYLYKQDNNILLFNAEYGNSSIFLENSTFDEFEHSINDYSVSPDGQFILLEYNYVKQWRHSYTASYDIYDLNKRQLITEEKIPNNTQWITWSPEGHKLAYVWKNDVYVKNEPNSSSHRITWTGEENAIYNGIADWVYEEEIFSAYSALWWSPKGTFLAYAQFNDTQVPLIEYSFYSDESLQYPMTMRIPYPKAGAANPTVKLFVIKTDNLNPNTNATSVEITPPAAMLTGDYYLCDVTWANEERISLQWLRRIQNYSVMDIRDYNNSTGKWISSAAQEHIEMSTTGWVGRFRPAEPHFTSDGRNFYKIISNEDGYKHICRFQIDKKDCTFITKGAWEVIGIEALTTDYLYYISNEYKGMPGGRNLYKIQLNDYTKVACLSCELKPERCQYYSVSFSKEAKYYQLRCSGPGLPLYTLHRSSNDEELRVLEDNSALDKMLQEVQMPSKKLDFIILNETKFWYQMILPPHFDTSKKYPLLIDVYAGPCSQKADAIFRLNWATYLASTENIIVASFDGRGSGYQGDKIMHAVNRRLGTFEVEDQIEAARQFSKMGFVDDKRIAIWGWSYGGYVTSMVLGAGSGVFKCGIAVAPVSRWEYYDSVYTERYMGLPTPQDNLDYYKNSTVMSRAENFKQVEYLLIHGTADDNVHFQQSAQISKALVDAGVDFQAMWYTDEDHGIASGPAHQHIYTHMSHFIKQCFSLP

Turning to `CC#CCn1c(N2CCC[C@@H](N)C2)nc2c1c(=O)n(Cc1ncccc1C#N)c(=O)n2C` [1-[(3-cyano-pyridin-2-yl)methyl]-3-methyl-7-(2-butyn-1-yl)-8-[3-(R)-amino-piperidin-1-yl]-xanthine monohydrochloride], in the series on diabetic ZDF rats, the “suppression of glucose excursion in OGTT” value stood at 35%. The same molecule returned an IC50 against DPP 9 of more than 10 µM. The half live entry in series [1] (single oral 1.0, 5.0, 10.0 mg/kg) is “over 25 hours”. In series [1] (1.0 mg/kg single oral), the AUC(0-inf) amounted to 1.14 µM·h, the Cmax was determined as 175 nM, the MRT came to 12.3 h and the time to peak (Tmax) was found to be 1.33 h. The half-life in series [1] (1.0 mg/kg single oral) was 25.4 h. In addition, in series [1] (5.0 mg/kg single oral), the total exposure AUC(0-inf) amounted to 5.48 µM·h, the highest level (Cmax) was 931 nM, the MRT turned out to be 6.76 h and the Tmax worked out at 1.83 h. The half-life in series [1] (5.0 mg/kg single oral) was 28.8 h. Besides, in series [1] (10 mg/kg single oral), the AUC(0-inf) was 26.3 µM·h, the Cmax was 5470 nM, the MRT is 5.73 h and the time of peak concentration (Tmax) worked out at 1.33 h. Moreover, the half-life in series [1] (10 mg/kg single oral) was 37.6 h. Moreover, the “inhibitory effect on plasmin” value on plasmin is recorded as “did not exert any inhibitory effect”. Besides, the “inhibition of plasma DPP IV activity” value with plasma DPP IV is 76%. In addition, on DPP-II, the “inhibitory effect on DPP-II” value was “did not exert any inhibitory effect”. Further, the “inhibition of DPP IV activity” value against DPP IV was “more than 80%”. Besides, in the series with amino-peptidase P, the “inhibitory effect on amino-peptidase P” value was “did not exert any inhibitory effect”.

The term IC50 denotes the concentration that inhibits the measured activity by half. A higher IC50 goes with a need for much substance. The term AUC(0-inf) denotes total exposure, with the tail of the curve extrapolated. A high value points to high exposure. The Cmax is the peak of the concentration-time curve. As a reminder, the MRT is the average time that molecules of a dose stay in the body. For orientation: Tmax means the time from dosing to the highest level.
